# Assay results as given in patent publication US20220119354A1, “DIAMINO-SUBSTITUTED PYRIDINES AND PYRIMIDINES AS HERBICIDES” (FMC Corporation, priority 2019, published 2022).
# How the values were obtained:
# Format in all cases: in vivo
# [1] = tested on: foxtail, giant (Setaria faberii); test: Test A preemergence, giant foxtail; details: 0 to 100 scale; for Foxtail, Giant plant response rating: 0 is no effect, 100 is complete control
# Summary of the method: (§1)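 Using a solvent/surfactant formulation, test chemicals were sprayed onto freshly seeded soil or onto 2–10 cm seedlings at the one- to two-leaf stage. Visual injury ratings on a 0–100 scale were made about 10 d later in the greenhouse.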
# [2] = tested on: ryegrass, Italian (Lolium multiflorum); test: Test A postemergence, Italian ryegrass; details: 0 to 100 scale
# Summary of the method: as §1
# [3] = tested on: barnyardgrass (Echinochloa crus-galli); test: Test A postemergence, barnyardgrass; details: 0 to 100 scale
# Summary of the method: as §1
# [4] = tested on: barnyardgrass (Echinochloa crus-galli); test: Test A preemergence, barnyardgrass; details: 0 to 100 scale; for Barnyardgrass plant response rating: 0 is no effect, 100 is complete control
# Summary of the method: as §1
# [5] = tested on: pigweed (Amaranthus retroflexus); test: Test A postemergence, pigweed; details: 0 to 100 scale
# Summary of the method: as §1
# [6] = tested on: blackgrass (Alopecurus myosuroides); test: Test A postemergence, blackgrass; details: 0 to 100 scale
# Summary of the method: as §1
# [7] = tested on: ryegrass, Italian (Lolium multiflorum); test: Test A preemergence, Italian ryegrass; details: 0 to 100 scale; for Ryegrass, Italian plant response rating: 0 is no effect, 100 is complete control
# Summary of the method: as §1
# kochia (Kochia scoparia) [8] = test: Test A postemergence, kochia; details: 0 to 100 scale
# Summary of the method: as §1
# [9] = tested on: wheat (Triticum aestivum); test: Test A postemergence, wheat; details: 0 to 100 scale
# Summary of the method: as §1
# [10] = tested on: ducksalad (Heteranthera limosa); test: Test B flooded paddy test, ducksalad; details: Flood, 250 g ai/ha, applied to paddy water, 2-leaf stage, visual evaluation after 13 to 15 d
# Summary of the method: (§2)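 Growth to two leaves preceded treatment. Flooding to 3 cm above soil surface, then water-applied compound; depth kept constant. Scored visually relative to controls after 13–15 d greenhouse; 100 means full control.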
# [11] = tested on: ragweed (common ragweed, Ambrosia elatior); test: Test A postemergence, ragweed; details: 0 to 100 scale
# Summary of the method: as §1
# [12] = tested on: ragweed (common ragweed, Ambrosia elatior); test: Test A preemergence, ragweed; details: 0 to 100 scale; for Ragweed plant response rating: 0 is no effect, 100 is complete control
# Summary of the method: as §1
# [13] = tested on: pigweed (Amaranthus retroflexus); test: Test A preemergence, pigweed; details: 0 to 100 scale; for Pigweed plant response rating: 0 is no effect, 100 is complete control
# Summary of the method: as §1
# [14] = tested on: sedge, umbrella (small-flower umbrella sedge, Cyperus difformis); test: Test B flooded paddy test, umbrella sedge; details: Flood, 250 g ai/ha, applied to paddy water, 2-leaf stage, visual evaluation after 13 to 15 d
# Summary of the method: as §2
# [15] = tested on: foxtail, giant (Setaria faberii); test: Test A postemergence, giant foxtail; details: 0 to 100 scale
# Summary of the method: as §1
# kochia (Kochia scoparia) [16] = test: Test A preemergence, kochia; details: 0 to 100 scale; for Kochia plant response rating: 0 is no effect, 100 is complete control
# Summary of the method: as §1
# [17] = tested on: galium (catchweed bedstraw, Galium aparine); test: Test A postemergence, galium; details: 0 to 100 scale
# Summary of the method: as §1
# corn (Zea mays) = test: Test A postemergence, corn; details: 0 to 100 scale
# Summary of the method: as §1
# [18] = tested on: barnyardgrass (Echinochloa crus-galli); test: Test B flooded paddy test, barnyardgrass; details: Flood, 250 g ai/ha, applied to paddy water, 2-leaf stage, visual evaluation after 13 to 15 d
# Summary of the method: as §2
# rice (Oryza sativa) = test: Test B flooded paddy test, rice; details: Flood, 250 g ai/ha, applied to paddy water, 2-leaf stage, visual evaluation after 13 to 15 d
# Summary of the method: as §2
# [19] = 125 g ai/ha, 0 no effect, 100 complete control
# [20] = 500 g ai/ha, 0 no effect, 100 complete control
smiles,measurement,setting,value
Nc1nc(NC(c2coc3ccccc23)C2CC2)ncc1C(F)(F)F (racemic) [Compound 95],"Foxtail, Giant plant response rating",[1]; 125 g ai/ha,90
same,"Foxtail, Giant plant response rating",[1]; 500 g ai/ha,100
same,"Plant response rating, Ryegrass, Italian",[2]; [19],50
same,"Plant response rating, Ryegrass, Italian",[2]; [20],100
same,"Plant response rating, Barnyardgrass",[3]; [19],0
same,"Plant response rating, Barnyardgrass",[3]; [20],70
same,Barnyardgrass plant response rating,[4]; 125 g ai/ha,80
same,Barnyardgrass plant response rating,[4]; 500 g ai/ha,100
same,"Plant response rating, Pigweed",[5]; [19],100
same,"Plant response rating, Pigweed",[5]; [20],100
same,"Plant response rating, Blackgrass",[6]; [19],0
same,"Plant response rating, Blackgrass",[6]; [20],70
same,"Ryegrass, Italian plant response rating",[7]; 125 g ai/ha,40
same,"Ryegrass, Italian plant response rating",[7]; 500 g ai/ha,60
same,"Plant response rating, Kochia",kochia (Kochia scoparia) [8]; [19],80
same,"Plant response rating, Kochia",kochia (Kochia scoparia) [8]; [20],90
same,"Plant response rating, Wheat",[9]; [19],0
same,"Plant response rating, Wheat",[9]; [20],30
same,"Plant response rating, Ducksalad (0 to 100 scale, 0 is no effect, 100 is complete control)",[10],55
same,"Plant response rating, Ragweed",[11]; [19],60
same,"Plant response rating, Ragweed",[11]; [20],80
same,Ragweed plant response rating,[12]; 125 g ai/ha,50
same,Ragweed plant response rating,[12]; 500 g ai/ha,100
same,Pigweed plant response rating,[13]; 125 g ai/ha,90
same,Pigweed plant response rating,[13]; 500 g ai/ha,100
same,"Plant response rating, Sedge, Umbrella (0 to 100 scale, 0 is no effect, 100 is complete control)",[14],70
same,"Plant response rating, Foxtail, Giant",[15]; [19],50
same,"Plant response rating, Foxtail, Giant",[15]; [20],90
same,Kochia plant response rating,kochia (Kochia scoparia) [16]; 125 g ai/ha,80
same,Kochia plant response rating,kochia (Kochia scoparia) [16]; 500 g ai/ha,90
same,"Plant response rating, Galium",[17]; [19],80
same,"Plant response rating, Galium",[17]; [20],80
same,"Plant response rating, Corn",corn (Zea mays); [19],10
same,"Plant response rating, Corn",corn (Zea mays); [20],30
same,"Plant response rating, Barnyardgrass (0 to 100 scale, 0 is no effect, 100 is complete control)",[18],35
same,"Plant response rating, Rice (0 to 100 scale, 0 is no effect, 100 is complete control)",rice (Oryza sativa),0
CC(Nc1ncc(C(F)(F)F)c(N)n1)c1coc2cccc(F)c12 (racemic) [Compound 96],"Foxtail, Giant plant response rating",[1]; 125 g ai/ha,20
same,"Foxtail, Giant plant response rating",[1]; 500 g ai/ha,80
same,"Plant response rating, Ryegrass, Italian",[2]; [19],0
same,"Plant response rating, Ryegrass, Italian",[2]; [20],0
same,"Plant response rating, Barnyardgrass",[3]; [19],30
same,"Plant response rating, Barnyardgrass",[3]; [20],40
same,Barnyardgrass plant response rating,[4]; 125 g ai/ha,0
same,Barnyardgrass plant response rating,[4]; 500 g ai/ha,90
same,"Plant response rating, Pigweed",[5]; [19],60
same,"Plant response rating, Pigweed",[5]; [20],90
same,"Plant response rating, Blackgrass",[6]; [19],0
same,"Plant response rating, Blackgrass",[6]; [20],30
same,"Ryegrass, Italian plant response rating",[7]; 125 g ai/ha,0
same,"Ryegrass, Italian plant response rating",[7]; 500 g ai/ha,50
same,"Plant response rating, Kochia",kochia (Kochia scoparia) [8]; [19],20
same,"Plant response rating, Kochia",kochia (Kochia scoparia) [8]; [20],90
same,"Plant response rating, Wheat",[9]; [19],0
same,"Plant response rating, Wheat",[9]; [20],0
same,"Plant response rating, Ducksalad (0 to 100 scale, 0 is no effect, 100 is complete control)",[10],0
same,"Plant response rating, Ragweed",[11]; [19],20
same,"Plant response rating, Ragweed",[11]; [20],80
same,Ragweed plant response rating,[12]; 125 g ai/ha,50
same,Ragweed plant response rating,[12]; 500 g ai/ha,70
same,Pigweed plant response rating,[13]; 125 g ai/ha,70
same,Pigweed plant response rating,[13]; 500 g ai/ha,90
same,"Plant response rating, Sedge, Umbrella (0 to 100 scale, 0 is no effect, 100 is complete control)",[14],0
same,"Plant response rating, Foxtail, Giant",[15]; [19],0
same,"Plant response rating, Foxtail, Giant",[15]; [20],60
same,Kochia plant response rating,kochia (Kochia scoparia) [16]; 125 g ai/ha,0
same,Kochia plant response rating,kochia (Kochia scoparia) [16]; 500 g ai/ha,0
same,"Plant response rating, Galium",[17]; [19],60
same,"Plant response rating, Galium",[17]; [20],80
same,"Plant response rating, Corn",corn (Zea mays); [19],40
same,"Plant response rating, Corn",corn (Zea mays); [20],60
same,"Plant response rating, Barnyardgrass (0 to 100 scale, 0 is no effect, 100 is complete control)",[18],0
same,"Plant response rating, Rice (0 to 100 scale, 0 is no effect, 100 is complete control)",rice (Oryza sativa),0
C[C@@H](Nc1ncc(C(F)(F)F)c(N)n1)c1ccc2ccccc2c1 [Compound 1],"Plant response rating, Foxtail, Giant",[1]; 125 g ai/ha,0
same,"Plant response rating, Foxtail, Giant",[1]; 500 g ai/ha,30
same,"Plant response rating, Ryegrass, Italian",[2]; 125 g ai/ha,0
same,"Plant response rating, Ryegrass, Italian",[2]; 500 g ai/ha,20
same,"Plant response rating, Barnyardgrass",[3]; 125 g ai/ha,0
same,"Plant response rating, Barnyardgrass",[3]; 500 g ai/ha,0
same,"Plant response rating, Barnyardgrass",[4]; 125 g ai/ha,0
same,"Plant response rating, Barnyardgrass",[4]; 500 g ai/ha,0
same,"Plant response rating, Pigweed",[5]; 125 g ai/ha,80
same,"Plant response rating, Pigweed",[5]; 500 g ai/ha,100
same,"Plant response rating, Blackgrass",[6]; 125 g ai/ha,0
same,"Plant response rating, Blackgrass",[6]; 500 g ai/ha,0
same,"Plant response rating, Ryegrass, Italian",[7]; 125 g ai/ha,0
same,"Plant response rating, Ryegrass, Italian",[7]; 500 g ai/ha,0
same,"Plant response rating, Kochia",kochia (Kochia scoparia) [8]; 125 g ai/ha,0
same,"Plant response rating, Kochia",kochia (Kochia scoparia) [8]; 500 g ai/ha,50
same,"Plant response rating, Wheat",[9]; 125 g ai/ha,0
same,"Plant response rating, Wheat",[9]; 500 g ai/ha,0
same,"Plant response rating, Ducksalad (0 to 100 scale, 0 is no effect, 100 is complete control)",[10],0
same,"Plant response rating, Ragweed",[11]; 125 g ai/ha,0
same,"Plant response rating, Ragweed",[11]; 500 g ai/ha,50
same,"Plant response rating, Ragweed",[12]; 125 g ai/ha,0
same,"Plant response rating, Ragweed",[12]; 500 g ai/ha,0
same,"Plant response rating, Pigweed",[13]; 125 g ai/ha,10
same,"Plant response rating, Pigweed",[13]; 500 g ai/ha,90
same,"Plant response rating, Sedge, Umbrella (0 to 100 scale, 0 is no effect, 100 is complete control)",[14],0
same,"Plant response rating, Foxtail, Giant",[15]; 125 g ai/ha,0
same,"Plant response rating, Foxtail, Giant",[15]; 500 g ai/ha,0
same,"Plant response rating, Kochia",kochia (Kochia scoparia) [16]; 125 g ai/ha,0
same,"Plant response rating, Kochia",kochia (Kochia scoparia) [16]; 500 g ai/ha,10
same,"Plant response rating, Galium",[17]; 125 g ai/ha,30
same,"Plant response rating, Galium",[17]; 500 g ai/ha,70
same,"Plant response rating, Corn",corn (Zea mays); 125 g ai/ha,0
same,"Plant response rating, Corn",corn (Zea mays); 500 g ai/ha,0
same,"Plant response rating, Barnyardgrass (0 to 100 scale, 0 is no effect, 100 is complete control)",[18],0
same,"Plant response rating, Rice (0 to 100 scale, 0 is no effect, 100 is complete control)",rice (Oryza sativa),0
